Like-named read-outs stand apart in the source and are kept apart here.
Assays:
[1] = Red blood cell binding, human whole blood; format: in vitro ADME; details: 30 minutes at 37°C, 500 ng/ml
[2] = in vivo; details: male, Hsd:ICR (CD-1), mouse, plasma
[3] = test system: HL-60; assay: In vitro proliferation assay (MTT), HL-60; format: cell-based; details: Homo sapiens
Summary of the method: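 Tetrazolium (MTT) proliferation test following a 3-day treatment with compound. Read-out is optical density at 570 nm after DMSO solubilization.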

[4] = Bioavailability experiment in mice given single intravenous cassette doses; details: for Cls: mice plasma, single intravenous cassette dose; for Conc. in plasma / Conc. (ng/ml) in plasma: mice; for Conc. in plasma: single 15 mg/kg intravenous cassette dose (3 mg/kg/compound), BLQ = below assay quantification limit (approximately 1 ng/ml); for Conc. (ng/ml) in plasma: BLQ = below assay quantification limit
[5] = test system: PC-3 Human Prostate Tumors; assay: PC-3 human prostate tumor xenograft in nude mice; format: in vivo; parameters: unit not given here; details: Table 4
Summary of the method: (§1)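 Subcutaneous HL-60 (5 x10^5 cells) or PC-3 (5 x 10^6 cells) xenografts in nude mice; ip dosing qd 5x/wk from 50–100 mm^3 tumors, at MTD and 1/3 MTD, ~3 wk (HL-60) or ~5 wk (PC-3). Caliper tumor volume ½(a x b2) twice weekly; body weight weekly.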

[6] = target: cdk1/cyclin B (Homo sapiens, UniProt P06493); assay: Cyclin-dependent kinase assay, cdk1/cyclin B; details: CDK1 IC50, nM, Histone H1, 10 µM ATP
Sequence of cdk1/cyclin B (P06493 whole entry): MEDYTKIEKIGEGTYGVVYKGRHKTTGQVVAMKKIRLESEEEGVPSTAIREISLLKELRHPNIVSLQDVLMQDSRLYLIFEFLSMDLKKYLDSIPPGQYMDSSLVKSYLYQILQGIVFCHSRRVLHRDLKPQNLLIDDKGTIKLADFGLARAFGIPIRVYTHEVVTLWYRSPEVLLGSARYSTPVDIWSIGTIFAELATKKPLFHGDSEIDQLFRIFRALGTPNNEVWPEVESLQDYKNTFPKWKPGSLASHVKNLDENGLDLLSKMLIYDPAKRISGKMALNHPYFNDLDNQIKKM
Sequence of cdk1/cyclin B (P14635 whole entry partner): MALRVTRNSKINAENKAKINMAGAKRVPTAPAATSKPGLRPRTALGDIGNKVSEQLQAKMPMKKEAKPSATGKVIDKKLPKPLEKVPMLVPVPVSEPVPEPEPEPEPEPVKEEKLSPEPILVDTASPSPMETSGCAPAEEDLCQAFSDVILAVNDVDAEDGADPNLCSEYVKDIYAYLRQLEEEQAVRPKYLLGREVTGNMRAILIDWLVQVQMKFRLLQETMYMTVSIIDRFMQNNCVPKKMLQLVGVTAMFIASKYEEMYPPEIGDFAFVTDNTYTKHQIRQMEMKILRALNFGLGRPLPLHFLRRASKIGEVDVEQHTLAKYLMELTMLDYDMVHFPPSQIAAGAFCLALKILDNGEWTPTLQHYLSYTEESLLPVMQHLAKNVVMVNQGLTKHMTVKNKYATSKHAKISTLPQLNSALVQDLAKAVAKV

[7] = test system: HL-60 Human Leukemia; assay: HL-60 human leukemia xenograft in nude mice; format: in vivo; parameters: key: tumor volume = ½(a × b²) from caliper diameters, in mm^3; details: Table 4
Summary of the method: as §1

[8] = 3 mg/kg/compound (15 mg/kg Total Dose), Cassette #4
[9] = HL-60, MTT assay, value (SD, n) where given, read-out: HL-60 Leuk. (IC50 µM)
[10] = Cassette #1, single 18 mg/kg intravenous cassette dose, 24 h
[11] = 3 mg/kg/compound (18 mg/kg Total Dose), Cassette #1
[12] = 3 mg/kg/compound (15 mg/kg Total Dose), Cassette #3

Row | SMILES | Mean Red Blood Cell to Plasma Ratio [1] | concentration at 0.083 h ([2]; intravenous, 3 mg/kg) | concentration at 0.25 h ([2]; intravenous, 3 mg/kg) | concentration at 0.5 h ([2]; intravenous, 3 mg/kg) | concentration at 1 h ([2]; intravenous, 3 mg/kg) | concentration at 3 h ([2]; intravenous, 3 mg/kg) | concentration at 6 h ([2]; intravenous, 3 mg/kg) | concentration at 8 h ([2]; intravenous, 3 mg/kg) | AUC(0-inf) ([2]; iv, 3 mg/kg) | Cmax ([2]; iv, 3 mg/kg) | half-life ([2]; iv, 3 mg/kg) | PC-3 Mean Vol. ± SD ([5]; dose 1 mg/kg ip) | PC-3 Mean Vol. ± SD ([5]; dose 3 mg/kg ip) | IC50 [6] | HL60 Mean Vol. ± SD ([7]; dose 1 mg/kg ip) | HL60 Mean Vol. ± SD ([7]; dose 3 mg/kg ip) | IC50 [3, 9] | concentration at 0.083 h ([2]; iv, 18 mg/kg) | concentration at 0.25 h ([2]; iv, 18 mg/kg) | concentration at 0.5 h ([2]; iv, 18 mg/kg) | also measured
1 | Cl.Cl.N[C@H]1CC[C@H](Nc2nc(NC3CCN(C(=O)Oc4ccc([N+](=O)[O-])cc4)CC3)c3ncn(C4CCCC4)c3n2)CC1 [compound 89, trans-4-[2-(4-Amino-cyclohexylamino)-9-cyclopentyl-9H-purin-6-ylamino]-piperidine-1-carboxylic acid 4-nitro-phenyl ester dihydrochloride] | 4.2 | 642 ± 49.5 ng/mL | 303 ± 34.3 ng/mL | 142 ± 2.7 ng/mL | 52.4 ± 4.2 ng/mL | 17 ± 4.7 ng/mL | 3.7 ± 1 ng/mL | 3.8 ± 0.5 ng/mL | 366 ng·h/mL | 642 ng/mL | 1.8 h | 2572 ± 1052 | 866 ± 384 | 20 nM | 2444 ± 2291 | 4278 ± 2801 |  |  |  |  | IC50 ([3]; HL-60, read-out: HL-60 Leuk. (IC50 µM)): 0.02 µM; Cls [4, 8]: 136.5 mL/min/kg; Conc. in plasma ([4]; Cassette #4, 24 h): BLQ
2 | Cl.Cl.N[C@H]1CC[C@H](Nc2nc(NC3CCN(S(=O)(=O)c4ccc(F)cc4)CC3)c3ncn(C4CCCC4)c3n2)CC1 [compound 106, trans-N^2-(4-Amino-cyclohexyl)-9-cyclopentyl-N^6-[1-(4-fluoro-benzenesulfonyl)-piperidin-4-yl]-9H-purine-2,6-diamine dihydrochloride] | 3.9 | 765 ± 64.3 ng/mL | 397 ± 59.2 ng/mL | 185 ± 13 ng/mL | 63.3 ± 0.5 ng/mL | 21.8 ± 6.1 ng/mL | 4.3 ± 0.8 ng/mL |  | 440 ng·h/mL | 765 ng/mL | 1.3 h | 1860 ± 741 | 1482 ± 906 | 8 nM | 4271 ± 3851 | 7368 ± 2592 | 0.1 µM |  |  |  | Cls [4, 8]: 113.7 mL/min/kg; Conc. in plasma ([4]; Cassette #4, 8 h, Mean ± SD): BLQ^a; Conc. in plasma ([4]; Cassette #4, 24 h): BLQ
3 | Cl.Cl.N#Cc1ccc(S(=O)(=O)N2CCC(Nc3nc(N[C@H]4CC[C@H](N)CC4)nc4c3ncn4C3CCCC3)CC2)cc1 [compound 109, trans-N^2-(4-Amino-cyclohexyl)-9-cyclopentyl-N^6-[1-(4-cyano-benzenesulfonyl)-piperidin-4-yl]-9H-purine-2,6-diamine dihydrochloride] | 5.0 |  |  |  |  |  |  |  | 1110 ng·h/mL | 1690 ng/mL | 2 h |  | 1807 ± 1388 | 18 nM |  | 2597 ± 2240 | 0.12 µM | 1690 ± 224 ng/mL | 915 ± 15.2 ng/mL | 514 ± 45.2 ng/mL | concentration at 1 h ([2]; iv, 18 mg/kg): 238 ± 38.7 ng/mL; concentration at 3 h ([2]; iv, 18 mg/kg): 30.1 ± 8.5 ng/mL; concentration at 6 h ([2]; iv, 18 mg/kg): 9.5 ± 1.8 ng/mL; concentration at 8 h ([2]; iv, 18 mg/kg): 5.5 ± 0.9 ng/mL; Conc. (ng/ml) in plasma [4, 10]: BLQ; Cls [4, 11]: 45.1 mL/min/kg; PC-3 Mean Vol. ± SD ([5]; dose 10 mg/kg ip): 979 ± 734; HL60 Mean Vol. ± SD ([7]; dose 10 mg/kg ip): 3466 ± 3730
4 | COC(=O)c1ccccc1S(=O)(=O)N1CCC(Nc2nc(N[C@H]3CC[C@H](N)CC3)nc3c2ncn3C2CCCC2)CC1.Cl.Cl [compound 111, trans-2-{4-[2-(4-Amino-cyclohexylamino)-9-cyclopentyl-9H-purin-6-ylamino]-piperidine-1-sulfonyl}-benzoic acid methyl ester dihydrochloride] | 1.2 |  |  |  |  |  |  |  | 1460 ng·h/mL | 2450 ng/mL | 2 h |  | 1083 ± 704 | 17 nM |  | 3798 ± 2431 | 0.38 µM | 2450 ± 287 ng/mL | 1090 ± 129 ng/mL | 588 ± 29.3 ng/mL | concentration at 1 h ([2]; iv, 18 mg/kg): 335 ± 81.3 ng/mL; concentration at 3 h ([2]; iv, 18 mg/kg): 33.8 ± 6.8 ng/mL; concentration at 6 h ([2]; iv, 18 mg/kg): 10.9 ± 3 ng/mL; concentration at 8 h ([2]; iv, 18 mg/kg): 6 ± 2 ng/mL; Conc. (ng/ml) in plasma [4, 10]: BLQ; Cls [4, 11]: 34.2 mL/min/kg; PC-3 Mean Vol. ± SD ([5]; dose 10 mg/kg ip): 2114 ± 1320; HL60 Mean Vol. ± SD ([7]; dose 10 mg/kg ip): 2387 ± 1282
5 | Cl.Cl.N[C@H]1CC[C@H](Nc2nc(NC3CCN(S(=O)(=O)c4cccc(C(F)(F)F)c4)CC3)c3ncn(C4CCCC4)c3n2)CC1 [compound 112, trans-N^2-(4-Amino-cyclohexyl)-9-cyclopentyl-N^6-[1-(3-trifluoromethyl-benzenesulfonyl)-piperidin-4-yl]-9H-purine-2,6-diamine dihydrochloride] | 3.7 | 2810 ± 272 ng/mL | 1700 ± 312 ng/mL | 435 ± 48 ng/mL | 175 ± 42.4 ng/mL | 45 ± 7.2 ng/mL | 17.7 ± 1.7 ng/mL | 13.6 ± 3.7 ng/mL | 1460 ng·h/mL | 2810 ng/mL | 2.8 h | 1155 ± 872 |  | 32 nM | 4170 ± 3111 |  | 0.18 µM |  |  |  | Cls [4, 12]: 34.2 mL/min/kg; Conc. in plasma ([4]; Cassette #3, 24 h): BLQ; PC-3 Mean Vol. ± SD ([5]; dose 0.3 mg/kg ip): 1302 ± 869; HL60 Mean Vol. ± SD ([7]; dose 0.3 mg/kg ip): 5413 ± 2845
6 | Cl.Cl.N[C@H]1CC[C@H](Nc2nc(NC3CCN(C(=O)Nc4ccc(C(F)(F)F)cc4)CC3)c3ncn(C4CCCC4)c3n2)CC1 [compound 149, trans-4-[2-(4-Amino-cyclohexylamino)-9-cyclopentyl-9H-purin-6-ylamino]-piperidine-1-carboxylic acid (4-trifluoromethyl-phenyl)-amide dihydrochloride] | 2.8 | 3110 ± 703 ng/mL | 419 ± 69.8 ng/mL | 133 ± 10.2 ng/mL | 59.8 ± 17.3 ng/mL | 15.5 ± 4.8 ng/mL | 4.1 ± 2.1 ng/mL | 5.4 ± 0.5 ng/mL | 1020 ng·h/mL | 3110 ng/mL | 1.6 h | 1084 ± 929 | 2089 ± 1382 | 30 nM | 4010 ± 2371 | 2505 ± 2104 | 0.03 µM |  |  |  | Cls [4, 12]: 49.1 mL/min/kg; Conc. in plasma ([4]; Cassette #3, 24 h): BLQ
7 | CCOC(=O)c1ccc(NC(=O)N2CCC(Nc3nc(N[C@H]4CC[C@H](N)CC4)nc4c3ncn4C3CCCC3)CC2)cc1.Cl.Cl [compound 154, trans-4-[(1-{4-[2-(4-Amino-cyclohexylamino)-9-cyclopentyl-9H-purin-6-ylamino]-piperidin-1-yl}-methanoyl)-amino]-benzoic acid ethyl ester dihydrochloride] | 4.1 |  |  |  |  |  |  |  | 1580 ng·h/mL | 4850 ng/mL | 0.8 h |  | 1385 ± 873 | 11 nM |  | 2641 ± 3024 | 0.06 µM | 4850 ± 794 ng/mL | 1130 ± 243 ng/mL | 377 ± 73.2 ng/mL | concentration at 1 h ([2]; iv, 18 mg/kg): 126 ± 12.3 ng/mL; concentration at 3 h ([2]; iv, 18 mg/kg): 8.4 ± 3.1 ng/mL; concentration at 6 h ([2]; iv, 18 mg/kg): 2.3 ± 1.6 ng/mL; Conc. (ng/ml) in plasma ([4]; Cassette #2, single 18 mg/kg intravenous cassette dose, 8 h, Mean ± SD): BLQ^a; Conc. (ng/ml) in plasma ([4]; Cassette #2, single 18 mg/kg intravenous cassette dose, 24 h): BLQ^a; Cls ([4]; 3 mg/kg/compound (18 mg/kg Total Dose), Cassette #2): 31.6 mL/min/kg; PC-3 Mean Vol. ± SD ([5]; dose 10 mg/kg ip): 1707 ± 721; HL60 Mean Vol. ± SD ([7]; dose 10 mg/kg ip): 2950 ± 1929
